How the values were obtained:
[1] = target: Bile salt export pump (Homo sapiens, UniProt O95342); test: Inhibition of human BSEP overexpressed in Sf9 cell membrane vesicles assessed as uptake of [3H]-taurocholate in presence of ATP measured after 15 to 20 mins by membrane vesicle transport assay; type: ADME, cell-based
[2] = target: ATP-binding cassette sub-family C member 2 (Homo sapiens, UniProt Q92887); test: Inhibition of human MRP2 overexpressed in Sf9 cell membrane vesicles assessed as uptake of [3H]-estradiol-17beta-D-glucuronide in presence of ATP and GSH measured after 20 mins by membrane vesicle transport assay
Sequence of ATP-binding cassette sub-family C member 2 (Q92887 whole entry): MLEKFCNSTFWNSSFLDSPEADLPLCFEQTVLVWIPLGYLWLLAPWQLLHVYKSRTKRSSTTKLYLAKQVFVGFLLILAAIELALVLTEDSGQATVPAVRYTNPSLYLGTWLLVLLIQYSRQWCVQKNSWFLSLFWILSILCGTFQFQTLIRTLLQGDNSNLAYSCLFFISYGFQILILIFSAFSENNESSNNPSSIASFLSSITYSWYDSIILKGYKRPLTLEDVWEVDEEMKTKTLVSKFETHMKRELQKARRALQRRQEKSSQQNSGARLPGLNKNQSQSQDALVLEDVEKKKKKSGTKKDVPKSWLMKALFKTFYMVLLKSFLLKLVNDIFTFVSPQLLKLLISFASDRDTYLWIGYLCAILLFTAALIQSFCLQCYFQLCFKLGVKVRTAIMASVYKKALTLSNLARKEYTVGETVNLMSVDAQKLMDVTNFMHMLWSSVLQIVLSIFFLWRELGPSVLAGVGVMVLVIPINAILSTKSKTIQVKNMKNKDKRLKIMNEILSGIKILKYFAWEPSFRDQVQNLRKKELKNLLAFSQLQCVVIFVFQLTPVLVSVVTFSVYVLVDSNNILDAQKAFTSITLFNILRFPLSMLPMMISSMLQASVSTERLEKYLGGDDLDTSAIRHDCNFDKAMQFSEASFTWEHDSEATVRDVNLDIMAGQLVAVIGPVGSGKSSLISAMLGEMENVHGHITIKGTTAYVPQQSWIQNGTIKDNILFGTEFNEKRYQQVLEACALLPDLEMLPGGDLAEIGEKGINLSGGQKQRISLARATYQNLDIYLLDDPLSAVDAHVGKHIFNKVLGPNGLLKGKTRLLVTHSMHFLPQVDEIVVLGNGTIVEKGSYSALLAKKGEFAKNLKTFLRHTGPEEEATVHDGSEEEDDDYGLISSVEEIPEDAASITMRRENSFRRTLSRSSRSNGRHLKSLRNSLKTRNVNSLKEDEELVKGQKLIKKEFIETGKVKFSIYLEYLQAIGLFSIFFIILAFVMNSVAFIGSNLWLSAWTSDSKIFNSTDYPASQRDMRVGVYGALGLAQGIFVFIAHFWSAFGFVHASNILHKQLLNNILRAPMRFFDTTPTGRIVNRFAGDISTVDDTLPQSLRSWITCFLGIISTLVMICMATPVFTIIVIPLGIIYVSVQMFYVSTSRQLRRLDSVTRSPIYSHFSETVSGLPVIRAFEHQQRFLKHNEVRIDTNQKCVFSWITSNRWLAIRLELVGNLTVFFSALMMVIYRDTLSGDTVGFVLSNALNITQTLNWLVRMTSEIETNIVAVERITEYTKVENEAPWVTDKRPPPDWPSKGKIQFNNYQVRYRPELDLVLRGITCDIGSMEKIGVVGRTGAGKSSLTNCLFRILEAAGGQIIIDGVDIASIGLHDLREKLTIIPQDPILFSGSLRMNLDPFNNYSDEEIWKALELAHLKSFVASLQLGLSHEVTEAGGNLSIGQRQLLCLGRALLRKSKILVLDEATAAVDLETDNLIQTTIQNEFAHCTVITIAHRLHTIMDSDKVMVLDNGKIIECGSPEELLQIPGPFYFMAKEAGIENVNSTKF

[3] = target: ATP-binding cassette sub-family C member 3 (Homo sapiens, UniProt O15438); test: Inhibition of human MRP3 overexpressed in Sf9 insect cell membrane vesicles assessed as uptake of [3H]-estradiol-17beta-D-glucuronide in presence of ATP and GSH measured after 10 mins by membrane vesicle transport assay; type: ADME, cell-based
Sequence of ATP-binding cassette sub-family C member 3 (O15438 whole entry): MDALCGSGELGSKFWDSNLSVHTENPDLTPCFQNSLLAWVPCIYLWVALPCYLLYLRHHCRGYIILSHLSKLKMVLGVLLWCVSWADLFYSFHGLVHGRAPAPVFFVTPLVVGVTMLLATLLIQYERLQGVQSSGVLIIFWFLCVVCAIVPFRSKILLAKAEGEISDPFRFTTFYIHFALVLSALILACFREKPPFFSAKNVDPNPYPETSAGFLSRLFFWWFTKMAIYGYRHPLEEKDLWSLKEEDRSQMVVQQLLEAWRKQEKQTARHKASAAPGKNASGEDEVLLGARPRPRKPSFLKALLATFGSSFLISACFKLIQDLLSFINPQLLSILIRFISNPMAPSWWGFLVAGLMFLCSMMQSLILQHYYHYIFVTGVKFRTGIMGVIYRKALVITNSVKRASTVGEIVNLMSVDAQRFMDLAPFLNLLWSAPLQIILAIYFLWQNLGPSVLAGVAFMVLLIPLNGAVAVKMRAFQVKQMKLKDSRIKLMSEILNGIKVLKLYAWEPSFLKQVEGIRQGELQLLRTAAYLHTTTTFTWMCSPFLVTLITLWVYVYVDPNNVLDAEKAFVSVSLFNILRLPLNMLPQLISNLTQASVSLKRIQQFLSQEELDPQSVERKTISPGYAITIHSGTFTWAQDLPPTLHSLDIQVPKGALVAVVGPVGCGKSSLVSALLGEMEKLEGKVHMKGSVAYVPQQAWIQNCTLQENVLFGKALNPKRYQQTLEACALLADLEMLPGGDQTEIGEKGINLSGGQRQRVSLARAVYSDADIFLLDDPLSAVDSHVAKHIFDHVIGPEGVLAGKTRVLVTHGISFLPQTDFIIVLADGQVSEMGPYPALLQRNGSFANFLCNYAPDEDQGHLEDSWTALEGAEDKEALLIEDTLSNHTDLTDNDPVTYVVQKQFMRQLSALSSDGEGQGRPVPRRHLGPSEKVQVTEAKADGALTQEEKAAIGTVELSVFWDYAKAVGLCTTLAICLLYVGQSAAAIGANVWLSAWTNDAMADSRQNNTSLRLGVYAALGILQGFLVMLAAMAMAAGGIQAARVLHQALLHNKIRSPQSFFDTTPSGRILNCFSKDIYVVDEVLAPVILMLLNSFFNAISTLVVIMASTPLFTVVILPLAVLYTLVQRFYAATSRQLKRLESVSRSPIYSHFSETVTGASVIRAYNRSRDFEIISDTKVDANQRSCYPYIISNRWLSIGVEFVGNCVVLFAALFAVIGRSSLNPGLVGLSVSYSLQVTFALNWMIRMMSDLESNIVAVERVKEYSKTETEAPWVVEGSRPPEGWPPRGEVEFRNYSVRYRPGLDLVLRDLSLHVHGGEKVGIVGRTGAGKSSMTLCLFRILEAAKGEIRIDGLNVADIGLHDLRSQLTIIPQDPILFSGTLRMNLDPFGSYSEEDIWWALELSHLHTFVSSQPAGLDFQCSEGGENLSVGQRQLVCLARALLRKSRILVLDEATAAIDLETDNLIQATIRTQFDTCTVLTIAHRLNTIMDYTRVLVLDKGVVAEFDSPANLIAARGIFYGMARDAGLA

[4] = target: T1, ATP-binding cassette sub-family C member 4 (Homo sapiens, UniProt O15439); test: Inhibition of human MRP4 overexpressed in Sf9 cell membrane vesicles assessed as uptake of [3H]-estradiol-17beta-D-glucuronide in presence of ATP and GSH measured after 20 mins by membrane vesicle transport assay; type: ADME, cell-based
T1 sequence (O15439 whole entry): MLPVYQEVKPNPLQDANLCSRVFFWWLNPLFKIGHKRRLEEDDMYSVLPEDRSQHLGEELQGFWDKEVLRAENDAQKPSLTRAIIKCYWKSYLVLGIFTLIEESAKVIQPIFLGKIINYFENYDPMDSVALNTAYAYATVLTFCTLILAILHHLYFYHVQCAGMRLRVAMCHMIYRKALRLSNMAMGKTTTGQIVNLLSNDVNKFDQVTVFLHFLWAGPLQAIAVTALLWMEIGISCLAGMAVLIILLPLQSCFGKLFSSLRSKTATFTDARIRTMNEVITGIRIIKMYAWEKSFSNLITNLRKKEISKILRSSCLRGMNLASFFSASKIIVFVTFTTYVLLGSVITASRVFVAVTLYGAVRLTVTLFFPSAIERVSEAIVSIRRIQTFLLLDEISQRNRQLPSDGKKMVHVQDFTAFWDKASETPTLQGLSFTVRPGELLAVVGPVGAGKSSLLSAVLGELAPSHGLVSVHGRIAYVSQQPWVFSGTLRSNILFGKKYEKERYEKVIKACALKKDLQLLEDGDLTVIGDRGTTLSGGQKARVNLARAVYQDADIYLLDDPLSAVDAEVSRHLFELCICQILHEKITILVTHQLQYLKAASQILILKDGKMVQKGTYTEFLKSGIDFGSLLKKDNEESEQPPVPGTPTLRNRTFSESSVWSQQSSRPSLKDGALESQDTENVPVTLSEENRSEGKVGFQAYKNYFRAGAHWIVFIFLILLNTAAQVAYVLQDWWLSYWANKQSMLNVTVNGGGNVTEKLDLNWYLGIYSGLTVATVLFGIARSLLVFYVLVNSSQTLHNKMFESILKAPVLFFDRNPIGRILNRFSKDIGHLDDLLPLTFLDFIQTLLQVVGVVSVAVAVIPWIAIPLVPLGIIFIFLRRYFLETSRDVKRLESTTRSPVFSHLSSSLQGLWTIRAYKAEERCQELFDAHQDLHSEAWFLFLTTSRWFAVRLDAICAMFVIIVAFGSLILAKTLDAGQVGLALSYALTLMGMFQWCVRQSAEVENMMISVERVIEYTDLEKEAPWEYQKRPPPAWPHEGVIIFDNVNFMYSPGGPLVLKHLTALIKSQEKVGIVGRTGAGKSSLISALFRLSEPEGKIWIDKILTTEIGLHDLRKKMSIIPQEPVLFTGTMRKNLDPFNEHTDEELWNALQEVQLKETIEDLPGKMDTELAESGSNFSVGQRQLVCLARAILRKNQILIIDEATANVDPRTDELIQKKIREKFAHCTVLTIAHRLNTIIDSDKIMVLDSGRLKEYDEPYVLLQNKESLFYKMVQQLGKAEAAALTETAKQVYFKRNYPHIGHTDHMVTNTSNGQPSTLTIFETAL

Sequence of Bile salt export pump (O95342 whole entry): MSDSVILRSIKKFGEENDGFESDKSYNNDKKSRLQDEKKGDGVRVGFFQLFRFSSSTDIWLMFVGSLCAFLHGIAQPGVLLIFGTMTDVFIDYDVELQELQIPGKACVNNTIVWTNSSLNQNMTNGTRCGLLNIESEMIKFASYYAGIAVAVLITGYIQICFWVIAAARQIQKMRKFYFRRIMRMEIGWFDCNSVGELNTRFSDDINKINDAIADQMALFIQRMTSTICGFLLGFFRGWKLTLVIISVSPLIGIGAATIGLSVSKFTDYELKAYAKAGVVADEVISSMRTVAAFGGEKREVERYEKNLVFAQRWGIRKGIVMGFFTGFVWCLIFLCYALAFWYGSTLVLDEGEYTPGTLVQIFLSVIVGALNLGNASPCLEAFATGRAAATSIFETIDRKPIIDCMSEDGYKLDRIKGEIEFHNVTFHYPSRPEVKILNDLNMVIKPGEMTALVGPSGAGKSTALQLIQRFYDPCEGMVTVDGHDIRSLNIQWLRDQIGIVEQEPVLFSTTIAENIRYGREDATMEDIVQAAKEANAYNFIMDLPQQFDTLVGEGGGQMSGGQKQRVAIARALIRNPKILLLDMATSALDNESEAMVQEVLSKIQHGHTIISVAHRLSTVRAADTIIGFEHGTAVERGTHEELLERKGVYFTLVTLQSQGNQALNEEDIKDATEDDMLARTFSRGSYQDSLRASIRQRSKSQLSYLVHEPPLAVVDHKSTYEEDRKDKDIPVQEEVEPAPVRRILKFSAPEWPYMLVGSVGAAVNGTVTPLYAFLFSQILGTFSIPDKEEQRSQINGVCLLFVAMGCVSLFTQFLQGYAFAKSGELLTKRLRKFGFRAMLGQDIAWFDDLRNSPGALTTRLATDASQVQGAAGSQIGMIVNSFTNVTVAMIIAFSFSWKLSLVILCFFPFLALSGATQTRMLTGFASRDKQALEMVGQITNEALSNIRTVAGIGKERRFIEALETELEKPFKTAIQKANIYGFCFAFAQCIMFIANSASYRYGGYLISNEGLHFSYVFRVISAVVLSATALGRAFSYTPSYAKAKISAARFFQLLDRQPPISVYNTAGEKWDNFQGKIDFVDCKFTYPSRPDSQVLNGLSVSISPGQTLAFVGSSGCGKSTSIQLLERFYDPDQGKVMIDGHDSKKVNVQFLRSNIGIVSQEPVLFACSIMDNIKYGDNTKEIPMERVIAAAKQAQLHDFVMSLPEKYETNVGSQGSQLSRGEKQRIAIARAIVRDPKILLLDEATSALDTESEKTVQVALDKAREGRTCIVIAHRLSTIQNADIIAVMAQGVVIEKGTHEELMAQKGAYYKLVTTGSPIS

Row | SMILES | IC50 [1] [µM] | IC50 [2] [µM] | IC50 [3] [µM] | IC50 [4] [µM]
1 | CN1CCc2cccc3c2[C@H]1Cc1ccc(O)c(O)c1-3 [APOMORPHINE] | > 133 | > 133 | > 133 | > 133
2 | COc1cc([C@@H]2c3cc4c(cc3[C@@H](O[C@@H]3O[C@@H]5CO[C@@H](C)O[C@H]5[C@H](O)[C@H]3O)[C@H]3COC(=O)[C@H]23)OCO4)cc(OC)c1OP(=O)(O)O [ETOPOSIDE PHOSPHATE] | > 133 | > 133 | > 133 | > 133
3 | CCN(CC)CCNC(=O)c1cc(Br)c(N)cc1OC [BROMOPRIDE] | > 133 | > 133 | > 133 | > 133
4 | Cc1nc2ccc(CN(C)c3ccc(C(=O)N[C@@H](CCC(=O)O)C(=O)O)s3)cc2c(=O)[nH]1 [RALTITREXED] | > 133 | > 133 | > 133 | > 133
5 | CN(CCCN1c2ccccc2CCc2ccccc21)CC(=O)c1ccc(Cl)cc1 [LOFEPRAMINE] | > 133 | > 133 | > 133 | > 133
6 | Nc1cccc2c1CN(C1CCC(=O)NC1=O)C2=O (stereo unspecified) [LENALIDOMIDE] | > 133 | > 133 | > 133 | > 133
7 | O=C(c1ccc(F)cc1)C1CCN(CCn2c(=O)[nH]c3ccccc3c2=O)CC1 [KETANSERIN] | > 133 | > 133 | > 133 | > 133
8 | CC[C@H]1CN2CCc3cc(OC)c(OC)cc3[C@@H]2C[C@@H]1C[C@H]1NCCc2cc(OC)c(OC)cc21 [EMETINE] | > 133 | > 133 | > 133 | > 133
9 | Cc1nnc(C(C)C)n1[C@@H]1C[C@H]2CC[C@@H](C1)N2CC[C@H](NC(=O)C1CCC(F)(F)CC1)c1ccccc1 [MARAVIROC] | 110 | > 133 | > 133 | > 133
10 | C#C[C@]1(O)C=C[C@H]2[C@@H]3CCC4=CC(=O)CC[C@@H]4[C@H]3CC[C@@]21CC [GESTODENE] | > 133 | > 133 | > 133 | > 133
11 | O=c1[nH]c(=O)n([C@H]2CCCO2)cc1F | > 133 | > 133 | > 133 | > 133
12 | C=C1[C@H](CO)[C@@H](O)C[C@@H]1n1cnc2c(=O)[nH]c(N)nc21 | > 133 | > 133 | > 133 | > 133
13 | N[C@@H](C(=O)N[C@@H]1C(=O)N2C(C(=O)O)=C(Cl)CS[C@H]12)c1ccccc1 [CEFACLOR ANHYDROUS] | > 133 | > 133 | > 133 | > 133
14 | COc1ccc2c3c1O[C@H]1C[C@@H](O)C=C[C@@]31CCN(C)C2 [GALANTAMINE] | > 133 | > 133 | > 133 | > 133
15 | NS(=O)(=O)c1cc2c(cc1C(F)(F)F)NCNS2(=O)=O [HYDROFLUMETHIAZIDE] | > 133 | > 133 | > 133 | > 133
16 | CN1CCN(C(=O)OC2c3nccnc3C(=O)N2c2ccc(Cl)cn2)CC1 (stereo unspecified) [ZOPICLONE] | > 133 | > 133 | > 133 | > 133
17 | NC(=O)N1c2ccccc2CC(=O)c2ccccc21 [OXCARBAZEPINE] | > 133 | > 133 | > 133 | > 133
18 | NC1=NC(=O)C(c2ccccc2)O1 (stereo unspecified) [PEMOLINE] | > 133 | > 133 | > 133 | > 133
19 | COc1ccc2cc1Oc1cc3c(cc1OC)CC[N+](C)(C)[C@H]3Cc1ccc(cc1)Oc1c(OC)c(OC)cc3c1[C@@H](C2)[N+](C)(C)CC3 [METOCURINE] | > 133 | > 133 | > 133 | > 133

Source: ChEMBL document CHEMBL4028801, “A multifactorial approach to hepatobiliary transporter assessment enables improved therapeutic compound development” (Toxicol Sci, 2013)
